# According to patent publication US20110177014A1, “EXTRACTS FROM PLANTS OF THE TSUGA GENUS AND USES THEREOF IN THE TREATMENT OF INFLAMMATION, IRRITATION AND/OR INFECTION” (BIOPHARMACOPAE DESIGN INTERNATIONAL INC., priority 2008, published 2011):
# How the values were obtained:
# Type in all cases: cell-based
# human skin keratinocytes [1] = assay: UVA-induced IL-1 release in keratinocytes, ELISA; details: UVA 20 J/cm^2
# Description: This example provides results showing the anti-inflammatory effect of Tsuga extracts when inflammation is induced in keratinocytes. The amount of interleukin-1 alpha (IL-1) released is used to quantify the inflammatory reaction after exposure of the keratinocytes to UVA light irradiation. IL-1 release was evaluated in human skin keratinocytes (Cascade Biologics, Portland, Oreg.) and was measured using the Quantikine hIL1 ELISA kit (R&D Systems, Minneapolis, Minn.). Keratinocytes were first grown in a 96-well plate using complete […] medium with different concentrations of extracts for 48 hours at 37° C. in a humidified 5% CO2 atmosphere. All extracts and controls were diluted in complete […] medium. Cells were rinsed with HBSS and irradiated with UVA at 20 J/cm^2. HBSS was removed and complete […] medium containing controls or extracts was added to respective wells. Plates were incubated for another 24 hours. ELISA was performed following the manufacturer's recommendations (R&D Systems). The absorbance was read at 450 nm on the Spectrafluor Plus plate reader (Tecan). […] The inhibition of IL-1 release is proportional to the anti-inflammatory effect.
# human skin keratinocytes [2] = assay: IL-8 release from keratinocytes (irritation potential), ELISA; details: 5 μM; basal level 18 pg/ml
# Description: This example provides results showing the non-irritating quality of the Tsuga extracts. The amount of interleukin-8 (IL-8) released in the following assay is used to quantify a possible irritating reaction after exposure of keratinocytes to the Tsuga extract.
# Release of IL-8 was evaluated on human skin keratinocytes (Cascade Biologics, Portland, Oreg., catalog number C-005) and measured using the Quantikine hIL8 ELISA kit (R&D Systems, Minneapolis, Minn., catalog number D8000C). Keratinocytes were first grown in a 96-well plate using complete medium M154 (M154+HKGS cat S-001 from Cascade Biologics). This medium was used as a negative (non-irritating) control, while 2.5 μM phorbol 12-myristate 13-acetate (PMA) (Sigma-Aldrich Canada, Oakville, Ontario) was used as a positive (irritating) control. All extracts and controls were diluted in complete medium M154. Cells were seeded into 96-well plates at a concentration of 8×10^3 cells/well in complete M154 medium and plates were incubated for 48 hours at 37° C. in a humidified 5% CO2 atmosphere. The medium was removed and 200 μl of Tsuga extract or control were added to the wells (all performed in duplicate) and then the plates were incubated for 48 hours at 37° C. in a humidified 5% CO2 atmosphere. […] The absorbance was read at 450 nm on the Spectrafluor Plus plate reader (Tecan). […]
# HUVECs = assay: Cord formation assay on Matrigel (angiogenesis); details: Homo sapiens, HUVEC
# Description: 60 μl Matrigel® was added to a 96-well plate flat bottom plate (Costar 3096) and incubated for 30 minutes at 37° C. in a 5% CO2 atmosphere. A mixture of HUVECs and Tsuga extract, or a positive control (Fumagillin or GM6001) were added to each well. HUVECs were prepared as suspensions of 2.5×10^5 cells per ml in EGM-2, then 500 μl of HUVECs preparation was mixed with 500 μl of 2× of the desired dilution of Tsuga extract or control drug and 200 μl were added to each well. Four dilutions of each extract were tested in duplicate. After 18-24 hours at 37° C. in 5% CO2, the cells had migrated and organized into cords. The number of cell junctions was counted in 3 randomly selected fields and the inhibition of cord formation is calculated as follows: [(A−B)/A]×100, where A is the average number of cell junctions per field in the control well and B is the average number of cell junctions per field in the treated wells.
# human skin fibroblasts = assay: Inhibition of contractile force of fibroblasts in collagen I gel; details: Skin fibroblast, read-out: inhibition of tractional force of fibroblasts
# Excerpt: The skin model comprises human skin fibroblasts imbedded in a collagen I matrix and provides an in vitro representation of dermal contraction resulting from tractional forces generated by fibroblasts. Partial or permanent dermal contraction can play a role in the formation of wrinkles. Thus, extracts capable of inhibiting the contractile force of fibroblasts, have the potential to provide a dermo-decontraction anti-ageing effect in the skin.
# The ability of the Tsuga extracts to inhibit the contractile force of fibroblasts was evaluated on human skin fibroblasts (Cascade Biologics, Portland, Oreg.). The cells were imbedded in a collagen I matrix to create a derm-like environment. Fibroblasts were grown in complete M106 to 80% confluence. Free-floating fibroblast-populated collagen gels were prepared in 24-well plates. 500 μl of gel contains 2.5 mg/ml of collagen I (rat tail, BD Biosciences, Bedford, Mass.), M106 5X, NaOH 0.7N; 1×10^5 cells and fetal bovine serum (FBS) at 20% (Wisent, St-Bruno, QC, Canada). The mix was kept on ice until distribution. The derm-like gels were allowed to polymerize for 1 hour at 37° C. in a humidified 5% CO2 atmosphere. After incubation, the gels were detached from the wells. […] Contraction was measured beginning at day 5. Contracting gels were digitally photographed and the gel areas were calculated using ImagePro software.
compound,measurement,setting,value
O=C(O)c1ccccc1O [salicylic acid],inhibition of IL-1 release,human skin keratinocytes [1]; 0.025%,11%
same,inhibition of IL-1 release,human skin keratinocytes [1]; 0.05%,27%
"CCCCCCCCCCCCCC(=O)O[C@@H]1[C@@H](C)[C@@]2(O)[C@@H](C=C(CO)C[C@]3(O)C(=O)C(C)=C[C@@H]23)[C@@H]2C(C)(C)[C@]12OC(C)=O [PMA, phorbol 12-myristate 13-acetate]",IL-8 release,human skin keratinocytes [2],282 pg/mL
CO[C@@H]1[C@H](OC(=O)/C=C/C=C/C=C/C=C/C(=O)O)CC[C@]2(CO2)[C@H]1[C@@]1(C)O[C@@H]1CC=C(C)C [Fumagillin],inhibition at 15 µg/mL,HUVECs; 15 μg/ml,100%
CNC(=O)[C@H](Cc1c[nH]c2ccccc12)NC(=O)[C@@H](CC(=O)NO)CC(C)C [GM6001],inhibition at 50 µM,human skin fibroblasts,85%
same,inhibition at 25 µM,HUVECs; 25 μM,78%
